Laboratory results reported in patent publication US11083735B2, “Methods for treating sleep disorders, sleep disturbances, and related symptoms using aminosterol compositions” (Enterin, Inc., priority 2017, dated 2021).

Assays:
[1] = test system: patients with PD and constipation; test: Phase 2 trial Stage 1 (single escalating dose): prokinetic response (CSBM within 24 hours); format: in vivo, human
Protocol: FIGS. 16A-16B show prokinetic activity of squalamine (ENT-01, a synthetic squalamine salt comprising squalamine as the active ion). […] Patients with baseline CSBM<1 required a higher dose (mean, 192 mg) of squalamine than patients with CSBM≥1 (mean, 120 mg).
Tolerability limits included diarrhea or vomiting.

[2] = Pharmacokinetics of orally administered squalamine (ENT-01) in Stage 1; format: in vivo, human; details: for AUC0-8 hr / AUC0-16 hr / Tmax (Median Value) / Cmax: Stage 1, oral; for Cmax: squalamine ion, mean
Protocol: Pharmakokinetics: PK data were collected on the 10 patients enrolled in Stage 1 and 10 patients enrolled in Stage 2 to determine the extent of systemic absorption. In Stage 1, PK data were obtained at each visit, pre-medication, at 1, 2, 4, 8 and 24 hours (Table 14). In Stage 2, PK was measured on days 1 and 6 of the randomization period pre-medication, at 1, 2, 4 and 8 hours (Table 15). […] Hao et al. 2003). The mean Cmax, Tmax and T1/2 and AUC of the squalamine ion following squalamine (ENT-01) oral dosing for Stage 1 patients. […] The mean Cmax, Tmax and T1/2 and AUC of the squalamine ion following squalamine (ENT-01) oral dosing for Stage 2 patients. The PK analyses are only approximate, as the lower limit of the validated concentration range was 0.5 ng/ml.

[3] = test system: patients with PD; test: Phase 2 trial Stage 2: sleep diary (total sleep time, arm or leg thrashing / RBD); format: in vivo, human
Protocol: FIG. 18 is a chart of total sleep time in relation to squalamine dose. Total sleep time was obtained from the sleep diary by subtracting awake time during the night from total time spent in bed. Total sleep time per night was logged for each patient at baseline, each dosing period and at washout, and the means were determined. The light grey bar represents the baseline value for each cohort at a given dose level and the dark grey bar represents the value for the same cohort at the stated dose of squalamine (ENT-01; Kenterin™). The number of patients represented at each value are: Baseline, 33; 75 mg, 21; 100 mg, 28; 125 mg, 18; 150 mg, 15; 175 mg, 12; 200 mg, 7; 225 mg, 3; 250 mg, 2; washout, 33. P values were as follows: 75 mg, p=0.4; 100 mg, p=0.1; 125 mg, p=0.3; 150 mg, p=0.07; 175 mg, p=0.03; 200 mg, p=0.3; 225 mg, p=0.5; 250 mg, p=0.3; wash-out, p=0.04 (paired t test).
The frequency of arm or leg thrashing reported in the sleep diary diminished progressively from 2.2 episodes/week at baseline to 0 at maximal dose.
(5) Sleep Diary (participants completed a sleep diary on a daily basis throughout the study. The diaries included time into bed and estimated time to sleep as well as wake time and duration during the night.);
Exploratory end-points, in addition to constipation, included for example, (i) depression assessed using the Beck Depression Inventory (BDI-II) (Steer et al. 2000) and Unified Parkinson's Disease Rating Scale (UPDRS); (ii) cognition assessed using the Mini Mental State Examination (MMSE) (Palsteia et al. 2018), Unified Parkinson's Disease Rating Scale (UPDRS), and Trail Making Test (TMT); (iii) sleep and REM-behavior disorder (RBD) using a daily sleep diary, I-Button Temperature Assessment, a REM sleep behavior disorder (RBD) questionnaire (RBDQ) (Stiasny-Kolster et al. 2007), and the UPDRS; (iv) hallucinations assessed using the PD hallucinations questionnaire (PDHQ) (Papapetropoulos et al. 2008), the UPDRS, and direct questioning; (v) fatigue using the Parkinson's Disease Fatigue Scale (PFS-16) and the UPDRS; (vi) motor functions using the UPDRS; and (vii) non-motor functions using the UPDRS.

[4] = test system: colons from PD mice; test: Isolated colon motility, PD mice (human αSynuclein gene); design: species or system mouse
Source text: Parkinson's disease is associated with varying degrees of constipation, typically beginning decades before diagnosis, and all too often has a profound negative impact on quality of life. It is believed that the ENS in PD is damaged earlier but by the same processes that damage the neurons of the CNS. In our clinical experience oral administration to several individuals with advanced Parkinson's disease corrected long standing constipation within days of initiation of treatment. We explored whether the human experience could be reproduced in the mouse. In the experiments illustrated below studies of colonic motility were conducted using organs from WT (1 yr old FVB/NJ) or PD mice, in which the murine αSynuclein gene has been excised and replaced by several copies of the human αSynuclein gene driven by the normal murine promoter.
The isolated colon from the PD strain presents a more sluggish peristaltic wave than that from the WT animal (black columns).

[5] = test system: Intrinsic primary afferent neurons (IPAN) of the jejunum; test: IPAN patch clamp, jejunum with intact luminal epithelium; design: species or system mouse; details: lumen perfused with 30 μM squalamine; 5.5 before
Protocol: Squalamine evoked bursts of action potential lasting for 10 to 30 min after application of a brief (20 ms) 50 μL puff of squalamine onto the epithelium.
To determine the mechanism by which squalamine stimulated intestinal motility, electrophysiological studies were conducted on single neurons within the colon or jejunum of WT mice, using published methods. Intrinsic primary afferent neurons (IPAN) of the jejunum were patch clamped from the adventitial surface, while the lumen of the jejunum was perfused with either Krebs's buffer or buffer containing 30 μM squalamine. The IPANs are multipolar neurons that receive sensory information from the lumen and then communicate with other divisions within the ENS to influence peristalsis as well as direct information rostrally.
In this experiment IPAN excitability was measured by stimulating the neuron with a single standard pulse, and counting the number of subsequent spontaneous discharges.

Question: With `CC(C)[C@@H](CC[C@@H](C)[C@H]1CC[C@H]2[C@@H]3[C@H](O)C[C@H]4C[C@@H](NCCCNCCCCN)CC[C@]4(C)[C@H]3CC[C@]12C)OS(=O)(=O)O` (single isomer, unassigned; ent-01) [ENT-01] as the molecule, how does the cumulative response rate ([1]; 25 mg) read?
Answer: 25%

Question: What about the cumulative response rate ([1]; 200 mg (maximum)) of the same molecule?
Answer: 80%

Question: And the approximate oral bioavailability ([2]; Stage 1, oral dosing up to 200 mg (114 mg/m^2), compared with prior phase 1 IV pharmacokinetic data)?
Answer: about 0.1%

Question: And the AUC0-8 hr ([2]; dose 25 mg)?
Answer: 10.8 ng·h/mL

Question: What about the AUC0-16 hr ([2]; dose 25 mg) of the same molecule?
Answer: 19.6 ng·h/mL

Question: And the “Tmax (Median Value)” value ([2]; dose 25 mg)?
Answer: 1.0 h

Question: What about the Cmax ([2]; dose 25 mg) of the same molecule?
Answer: 2.84 ng/mL

Question: And the AUC0-8 hr ([2]; dose 50 mg)?
Answer: 18.5 ng·h/mL

Question: What about the AUC0-16 hr ([2]; dose 50 mg) of the same molecule?
Answer: 33.1 ng·h/mL

Question: And the “Tmax (Median Value)” value ([2]; dose 50 mg)?
Answer: 2.0 h

Question: What about the Cmax ([2]; dose 50 mg) of the same molecule?
Answer: 3.73 ng/mL

Question: And the AUC0-8 hr ([2]; dose 75 mg)?
Answer: 18.4 ng·h/mL

Question: And the AUC0-16 hr ([2]; dose 75 mg)?
Answer: 29.8 ng·h/mL

Question: And the “Tmax (Median Value)” value ([2]; dose 75 mg)?
Answer: 2.0 h

Question: What about the Cmax ([2]; dose 75 mg) of the same molecule?
Answer: 4.33 ng/mL

Question: What about the AUC0-8 hr ([2]; dose 100 mg) of the same molecule?
Answer: 29.6 ng·h/mL

Question: What about the AUC0-16 hr ([2]; dose 100 mg) of the same molecule?
Answer: 51.5 ng·h/mL

Question: What about the “Tmax (Median Value)” value ([2]; dose 100 mg) of the same molecule?
Answer: 2.0 h

Question: And the Cmax ([2]; dose 100 mg)?
Answer: 6.18 ng/mL

Question: What about the AUC0-8 hr ([2]; dose 125 mg) of the same molecule?
Answer: 43.1 ng·h/mL

Question: And the AUC0-16 hr ([2]; dose 125 mg)?
Answer: 77.7 ng·h/mL

Question: And the “Tmax (Median Value)” value ([2]; dose 125 mg)?
Answer: 2.0 h

Question: What about the Cmax ([2]; dose 125 mg) of the same molecule?
Answer: 9.63 ng/mL

Question: What about the AUC0-8 hr ([2]; dose 150 mg) of the same molecule?
Answer: 31.5 ng·h/mL

Question: And the AUC0-16 hr ([2]; dose 150 mg)?
Answer: 64.0 ng·h/mL

Question: What about the “Tmax (Median Value)” value ([2]; dose 150 mg) of the same molecule?
Answer: 2.0 h

Question: What about the Cmax ([2]; dose 150 mg) of the same molecule?
Answer: 6.27 ng/mL

Question: What about the AUC0-8 hr ([2]; dose 175 mg) of the same molecule?
Answer: 49.7 ng·h/mL

Question: And the AUC0-16 hr ([2]; dose 175 mg)?
Answer: 91.2 ng·h/mL

Question: What about the “Tmax (Median Value)” value ([2]; dose 175 mg) of the same molecule?
Answer: 2.0 h

Question: What about the Cmax ([2]; dose 175 mg) of the same molecule?
Answer: 10.3 ng/mL

Question: What about the AUC0-8 hr ([2]; dose 200 mg) of the same molecule?
Answer: 78.3 ng·h/mL

Question: What about the AUC0-16 hr ([2]; dose 200 mg) of the same molecule?
Answer: 157 ng·h/mL

Question: What about the “Tmax (Median Value)” value ([2]; dose 200 mg) of the same molecule?
Answer: 2.0 h

Question: What about the Cmax ([2]; dose 200 mg) of the same molecule?
Answer: 15.1 ng/mL

Question: And the oral bio-availability ([2]; estimated from PK of intravenously administered squalamine in prior clinical studies)?
Answer: less than 0.3%

Question: And the “increase of total sleep time” value ([3]; 250 mg vs baseline)?
Answer: 18%

Question: What about the Total sleep time ([3]; at 250 mg, baseline 7.1) of the same molecule?
Answer: 8.4 h

Question: And the “improvement of arm or leg thrashing frequency” value ([3]; at maximal dose vs baseline)?
Answer: 100%

Question: And the “frequency of arm or leg thrashing reported in the sleep diary” value ([3]; at maximal dose, baseline 2.2)?
Answer: 0 episodes/week

Question: What about the Total sleep time ([3]; beyond 125 mg) of the same molecule?
Answer: consistently higher than baseline

Question: For `CC(C)[C@@H](CC[C@@H](C)[C@H]1CC[C@H]2[C@@H]3[C@H](O)C[C@H]4C[C@@H](NCCCNCCCCN)CC[C@]4(C)[C@H]3CC[C@]12C)OS(=O)(=O)O` [squalamine], which “speed of the colonic peristaltic wave” value ([4]; FIG. 14B) is on record?
Answer: normalizing the PD colon to that of the unstimulated WT mouse

Question: And the “force of peristaltic contractions” value ([4]; squalamine added to lumen, FIG. 14A)?
Answer: increases the force of contractions

Question: What about the “number of discharges stimulated by a single electrical impulse (IPAN excitability)” value [5] of the same molecule?
Answer: 8.8
